# From patent US20040220164A1, “Triaza compound immunoregulatory agents” (priority 2001, published 2004)
# Where two headings read alike, the source gives them in different places.
# Experiments:
# CD4 = CD4 (Homo sapiens, UniProt P01730); assay: Intracellular CD4 staining; type: cell-based; design: To study the effect of the CADA derivatives on surface CD4 antigen expression, MT-4 and SupT1 cells were incubated; endogenous in cells; host or cells: MT-4, SupT1, PBMC; conditions: SupT1 cells, CADA 3.2 μM, 4 days; untreated 97.3%
# Description: FIGS. 3A-3B. Intracellular CD4 staining in SupT1 cells after incubation with CADA hydrochloride (3.2 μM) for 4 days. (A) The intracellular CD4 expression of SupT1 cells cultured in medium alone and (B) treated with CADA for 4 days.
# The effect of CADA on the intracellular presence of CD4 was also investigated. […] Similar results were also obtained in MT-4 cells and in PBMCs, and with two other anti-CD4 mAbs (OKT4A and OKT4).
# HIV-1 strain IIIB = assay: Anti-HIV-1 assay (p24 Ag ELISA); type: cell-based; conditions: Human immunodeficiency virus 1, IIIB, read-out: IC50 against HIV-1 IIIB
# Description: (§1) The antiviral activity of CADA against HIV-1 and RHV-7 was investigated. PBMCs and […] cell-depleted PBMCs (removed with CD8 magnetic beads; Dynal AS, Oslo, Norway), previously activated with purified PHA (2 μg/ml) and rhIL-2 (1 ng/ml) for 3 days, were pelleted and exposed to HIV-1 (1 ng p24 Ag per 10^6 cells) for 2 hours at 370C. Then the cells were washed three times with warm medium and cultured in complete medium containing rhIL-2 (1 ng/ml) in the presence or absence of different concentrations of CADA hydrochloride. The anti-HIV-1 assays were also performed in MT-4 and SupT1 cells. CADA hydrochloride was diluted in the plates, then the MT-4 cells or SupT1 cells were added and finally the T-tropic HIV-1 strains. The supernatant was collected at day 5 for MT-4 cells, day 8 for SupT1 cells and day 12 for PBMCs, and stored at −20° C. and analyzed for HIV-1 core antigen by p24 Ag ELISA (NEN, Brussels, Belgium). The SupT1 cells were refreshed on day 4, and half of the medium and cells were replaced and fresh CADA-free medium was added. For the PBMCs, fresh culture medium was added at day 6 containing rhIL-2 (but no CADA). For the anti-HHV-7 assays in PBMCs, CADA hydrochloride was diluted in a plate, 2×10˜cells were added and then HHV-7 (KHR strain) was added in complete medium containing rhIL-2 (1 ng/ml). Fresh culture medium was added again at day 6 containing rhIL-2 (but no CADA). The same infection protocol was used for the SupT1 cells, but without rhIL-2. The SupT1 cells were refreshed on day 4 and day 8, half of the medium and the cells were replaced, and fresh medium without CADA was added. The HHV-7 antigen expression was monitored (at day 12) with a specific mAb to HHV-7 (RK-4) (Advanced Biotechnologies, Columbia, Md.) by flow cytometry, as described previously (Thang, Y., et al., Antiviral Res. 43:23-35 (1999)).
# [1] = tested on: CCR5-using (R5) HIV-1 strain BaL; assay: Anti-HIV-1 assay (p24 Ag ELISA); type: cell-based; conditions: Human immunodeficiency virus 1, BAL, PBMC; read-out: IC50 against HIV-1 BaL
# Description: as §1
# CXCR4 = assay: Cell surface expression of HIV coreceptor; type: cell-based, human; conditions: incubation of the cells with CADA for 4 days
# Description: (§2) Expression of various other surface antigens was also examined in MT-4 cells, SupT1 cells and PBMCs after incubation with CADA (16 μM) or CADA-free medium at 37° C. for 4 days. After washing with phosphate-buffered saline (PBS) containing 2% FCS(fetal calf serum), the cells were incubated with mAb (as indicated in Table 1) for 20 min at 4° C. Then the cells were washed, fixed with 1% formaldehyde and analyzed by flow cytometry. All mAbs were purchased from Becton-Dickinson (Erembodegem, Belgium).
# CD45 = assay: Cell surface antigen expression by flow cytometry (Table 2); type: cell-based, human; conditions: CADA 16 μM, 4 days, percentage of positive cells, unit not given
# Description: as §2
# CD3 = assay: as above; type: cell-based, human; conditions: CADA 16 μM, 4 days, percentage of positive cells, unit not given
# Description: as §2
# CD71 = assay: as above; type: cell-based, human; conditions: CADA 16 μM, 4 days, percentage of positive cells, unit not given
# Description: as §2
# CD28 = assay: as above; type: cell-based, human; conditions: CADA 16 μM, 4 days, percentage of positive cells, unit not given
# Description: as §2
# HLA-DR = assay: as above; type: cell-based, human; conditions: CADA 16 μM, 4 days, percentage of positive cells, unit not given
# Description: as §2
# CD45RA = assay: as above; type: cell-based, human; conditions: CADA 16 μM, 4 days, percentage of positive cells, unit not given
# Description: as §2
# CD25 = assay: as above; type: cell-based, human; conditions: CADA 16 μM, 4 days, percentage of positive cells, unit not given
# Description: as §2
# TCRα/β = assay: as above; type: cell-based, human; conditions: CADA 16 μM, 4 days, percentage of positive cells, unit not given
# Description: as §2
# CD26 = assay: as above; type: cell-based, human; conditions: CADA 16 μM, 4 days, percentage of positive cells, unit not given
# Description: as §2
# CD57 = assay: as above; type: cell-based, human; conditions: CADA 16 μM, 4 days, percentage of positive cells, unit not given
# Description: as §2
# CD38 = assay: as above; type: cell-based, human; conditions: CADA 16 μM, 4 days, percentage of positive cells, unit not given
# Description: as §2
# CD5 = assay: as above; type: cell-based, human; conditions: CADA 16 μM, 4 days, percentage of positive cells, unit not given
# Description: as §2
# CD2 = assay: as above; type: cell-based, human; conditions: CADA 16 μM, 4 days, percentage of positive cells, unit not given
# Description: as §2
smiles,measurement,setting,value
C=C1CN(S(=O)(=O)c2ccc(C)cc2)CCCN(Cc2ccccc2)CCCN(S(=O)(=O)c2ccc(C)cc2)C1 [CADA],percentage of intracellular CD4 expression,CD4,1.3%
same,IC50,"HIV-1 strain IIIB; MT4, MT-4 cells",300 nM
same,IC50,HIV-1 strain IIIB; PBMC,600 nM
same,IC50,"HIV-1 strain IIIB; SUP-T1, SupT1 cells",900 nM
same,IC50,[1],800 nM
same,cell surface expression of CXCR4,CXCR4,remained unchanged
same,CD45 cell surface antigen expression,CD45; MT-4 T-cells,3.57
same,CD45 cell surface antigen expression,CD45; PBMCs,98.3
same,CD45 cell surface antigen expression,CD45; SupT1 T-cells,99.6
same,CD3 cell surface antigen expression,CD3; MT-4 T-cells,5.9
same,CD3 cell surface antigen expression,CD3; PBMCs,89.4
same,CD3 cell surface antigen expression,CD3; SupT1 T-cells,2.7
same,CD71 cell surface antigen expression,CD71; MT-4 T-cells,98.8
same,CD71 cell surface antigen expression,CD71; PBMCs,27.6
same,CD71 cell surface antigen expression,CD71; SupT1 T-cells,33.9
same,CD28 cell surface antigen expression,CD28; MT-4 T-cells,6.6
same,CD28 cell surface antigen expression,CD28; PBMCs,89.6
same,CD28 cell surface antigen expression,CD28; SupT1 T-cells,90.8
same,HLA-DR cell surface antigen expression,HLA-DR; MT-4 T-cells,98.7
same,HLA-DR cell surface antigen expression,HLA-DR; PBMCs,27
same,HLA-DR cell surface antigen expression,HLA-DR; SupT1 T-cells,1.7
same,CD45RA cell surface antigen expression,CD45RA; MT-4 T-cells,2.0
same,CD45RA cell surface antigen expression,CD45RA; PBMCs,64.3
same,CD45RA cell surface antigen expression,CD45RA; SupT1 T-cells,0.5
same,CD25 cell surface antigen expression,CD25; MT-4 T-cells,93.3
same,CD25 cell surface antigen expression,CD25; PBMCs,35.5
same,CD25 cell surface antigen expression,CD25; SupT1 T-cells,1
same,TCRα/β cell surface antigen expression,TCRα/β; MT-4 T-cells,1.1
same,TCRα/β cell surface antigen expression,TCRα/β; PBMCs,82.3
same,TCRα/β cell surface antigen expression,TCRα/β; SupT1 T-cells,1.6
same,CD26 cell surface antigen expression,CD26; MT-4 T-cells,3.2
same,CD26 cell surface antigen expression,CD26; PBMCs,3.2
same,CD26 cell surface antigen expression,CD26; SupT1 T-cells,0.3
same,CD57 cell surface antigen expression,CD57; MT-4 T-cells,1.5
same,CD57 cell surface antigen expression,CD57; PBMCs,2.3
same,CD57 cell surface antigen expression,CD57; SupT1 T-cells,82.4
same,CD38 cell surface antigen expression,CD38; MT-4 T-cells,84.5
same,CD38 cell surface antigen expression,CD38; PBMCs,73.2
same,CD38 cell surface antigen expression,CD38; SupT1 T-cells,99.1
same,CD5 cell surface antigen expression,CD5; MT-4 T-cells,99.1
same,CD5 cell surface antigen expression,CD5; PBMCs,80.6
same,CD5 cell surface antigen expression,CD5; SupT1 T-cells,93.9
same,CD2 cell surface antigen expression,CD2; MT-4 T-cells,2.6
same,CD2 cell surface antigen expression,CD2; PBMCs,90.7
same,CD2 cell surface antigen expression,CD2; SupT1 T-cells,0.5
